{"source": "patent US20240123039A1", "about": "“DETOXIFICATION PREPARATIONS WITH REINFORCED BOOSTERS TO TREAT ALCOHOL INTOXICATION” (priority 2022, published 2024)", "key": {"[1]": {"conditions": "cited from earlier work; for safety of human consumption: by mouth up to 1000 mg per dose per day; for side effects of oral intake: orally, up to or more than 1000 mg per day over many years"}, "[2]": {"molecular_target": "T1, alcohol dehydrogenase (ADH) (Saccharomyces cerevisiae, UniProt P00330)", "T1 construct": "purchased Sigma", "T1 sequence (P00330 1-348)": "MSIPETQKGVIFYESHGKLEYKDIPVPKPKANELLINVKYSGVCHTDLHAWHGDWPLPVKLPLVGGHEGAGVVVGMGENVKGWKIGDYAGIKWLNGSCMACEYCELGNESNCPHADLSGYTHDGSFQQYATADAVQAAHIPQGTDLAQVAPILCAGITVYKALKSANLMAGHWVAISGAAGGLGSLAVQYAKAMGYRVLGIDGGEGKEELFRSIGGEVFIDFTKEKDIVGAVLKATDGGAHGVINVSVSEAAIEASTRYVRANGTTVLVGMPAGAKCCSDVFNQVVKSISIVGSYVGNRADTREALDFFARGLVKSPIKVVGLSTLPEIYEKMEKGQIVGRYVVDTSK", "assay": "Effect of NADP concentration on alcohol dehydrogenase activity, OD340 read every minute", "format": "biochemical", "conditions": "for OD of samples after subtracting OD at time zero vs. Time / OD of samples vs. Time: ADH 84 U/mL, 2.5% ethanol; for OD of samples vs. Time: OD340", "procedure": "100% ethanol (EtOH) was purchased from VWR. Buffer used was Triz Base at 0.2 M, pH 8.2.\nThe concentration of ethanol is 2.5% (v/v). And 0.28 mg/mL ADH, equivalent to 84 U/mL.\nMultiple samples were prepared as per Table 1. The assay was performed as follows: • 1. […] Place a quartz cuvette into the spectrophotometer. • 3. At time minus 10 seconds, add 0.1 mL enzyme (2 mg/mL ADH or buffer blank) to the cuvette. • 4. Mix by pipetting. Read OD340 at time zero. • 5. Read OD340 every minute for 5 minutes. 6. Repeat for remaining samples."}}, "data": [{"compound": "NC(=O)c1ccc[n+]([C@@H]2O[C@H](COP(=O)([O-])O)[C@@H](O)[C@H]2O)c1", "note": "[NMN, Nicotinamide Mononucleotide]", "values": [{"measurement": "safety of human consumption", "setting": "[1]", "value": "no ill effects"}, {"measurement": "side effects of oral intake", "setting": "[1]", "value": "without any detectable undesirable side effects"}]}, {"compound": "NC(=O)c1ccc[n+]([C@@H]2O[C@H](CO)[C@@H](O)[C@H]2O)c1", "note": "[NR, Nicotinamide Riboside]", "values": [{"measurement": "safety of human consumption", "setting": "[1]", "value": "no ill effects"}, {"measurement": "side effects of oral intake", "setting": "[1]", "value": "without any detectable undesirable side effects"}]}, {"compound": "Nicotinamide Adenine Dinucleotide Phosphate [NADP]", "values": [{"measurement": "OD of samples after subtracting OD at time zero vs. Time", "setting": "[2]; 0 min, NADP 8.5 mM final", "value": 0}, {"measurement": "OD of samples vs. Time", "setting": "[2]; 0 min, NADP 8.5 mM final", "value": 0.003}, {"measurement": "OD of samples after subtracting OD at time zero vs. Time", "setting": "[2]; 0 min, NADP 28 mM final", "value": 0}, {"measurement": "OD of samples vs. Time", "setting": "[2]; 0 min, NADP 28 mM final, listed as NADP 3x", "value": 0.749}, {"measurement": "OD of samples vs. Time", "setting": "[2]; 0 min, NADP 28 mM final, listed as NADP 3×", "value": "around 0.8"}, {"measurement": "velocity of ethanol removal by ADH in the higher NADP mixture compared to the lower NADP mixture", "setting": "[2]; 28 mM vs 8.4 mM NADP, same conc of ADH", "value": "about 2 ×"}, {"measurement": "OD of samples after subtracting OD at time zero vs. Time", "setting": "[2]; 1 min, NADP 8.5 mM final", "value": 0.059}, {"measurement": "OD of samples vs. Time", "setting": "[2]; 1 min, NADP 8.5 mM final", "value": 0.062}, {"measurement": "OD of samples vs. Time", "setting": "[2]; 1 min, NADP 28 mM final", "value": 0.860}, {"measurement": "OD of samples after subtracting OD at time zero vs. Time", "setting": "[2]; 2 min, NADP 8.5 mM final", "value": 0.087}, {"measurement": "OD of samples vs. Time", "setting": "[2]; 2 min, NADP 8.5 mM final", "value": 0.090}, {"measurement": "OD of samples after subtracting OD at time zero vs. Time", "setting": "[2]; 2 min, NADP 28 mM final", "value": 0.169}, {"measurement": "OD of samples vs. Time", "setting": "[2]; 2 min, NADP 28 mM final", "value": 0.918}, {"measurement": "OD of samples after subtracting OD at time zero vs. Time", "setting": "[2]; 3 min, NADP 8.5 mM final", "value": 0.098}, {"measurement": "OD of samples vs. Time", "setting": "[2]; 3 min, NADP 28 mM final", "value": 0.948}, {"measurement": "OD of samples after subtracting OD at time zero vs. Time", "setting": "[2]; 4 min, NADP 8.5 mM final", "value": 0.102}, {"measurement": "OD of samples vs. Time", "setting": "[2]; 4 min, NADP 28 mM final", "value": 0.963}, {"measurement": "OD of samples after subtracting OD at time zero vs. Time", "setting": "[2]; 5 min, NADP 28 mM final", "value": 0.223}, {"measurement": "OD of samples vs. Time", "setting": "[2]; 5 min, NADP 28 mM final", "value": 0.972}, {"measurement": "OD at higher NADP concentration compared with the lower NADP concentration", "setting": "[2]; starting at 1 minute, higher vs lower NADP concentration", "value": "higher ODs at every time point"}]}]}
